The test system of this test is pale-green mutant Nannochloropsis. Put plainly: Growth of algae cultures treated with 2-hydroxy-5-oxoproline (Example One, FIG. 3). It is filed as cell-based. From the text: At step 130, the pale-green mutant Nannochloropsis may be cultivated in an aqueous environment having an effective amount of 2-hydroxy-5-oxoproline. The effective amount of 2-hydroxy-5-oxoproline may increase the growth rate of the pale-green mutant Nannochloropsis.
1. Light intensity was 600 micro-Einsteins.
2. Temperature was held constant at 25 C.
3. Cultures were inoculated to the same extent (as determined by optical density at […], O.D. 750).
4. The bicarb controls were used because the AB1 chemical, which is the 2-hydroxy-5-oxoproline compound, was dissolved in a bicarbonate buffer. This control was to make sure that differences in growth were not due to the presence of bicarbonate. The bicarb controls contain the same concentration of bicarbonate as the AB1 flasks.
5. The cultures were grown on urea as the nitrogen-source.
The bicarb controls were inoculated with 10 mls of 1.3 M bicarbonate solution (pH 9.5). The AB-1 treated cultures had approximately 0.1 g of 2-hydroxy-5-oxoproline added with the algal inoculum. No treat 2 had approximately 50% more cells inoculated as no treat 1, bicarb 1 and 2 and the AB-1 cultures. […] The difference in slope between the AB-1 cultures and the no-treat 1 and bicarb controls was approximately 50%-60%. Therefore, by feeding 2-hydroxy-5-oxoproline to pale-green mutant Nannochloropsis, a greater growth rate could be achieved, which would allow high cell density cultures to be produced quicker, so the advantages of the pale-green phenotype over the wild-type become apparent.

Each structure is given as a SMILES string.

`O=C1CC[C@@](O)(C(=O)O)N1` [AB-1, 2-hydroxy-5-oxoproline]: the “difference in slope (growth) between the AB-1 cultures and the no-treat 1 and bicarb controls” value (approximately 0.1 g 2-hydroxy-5-oxoproline added with inoculum to 800 mls media, approximately 300 hours, constant illumination 600 micro-Einsteins, 25 C, urea as nitrogen-source) is reported as 50%-60%. For the same molecule, the “growth compared with no treat 2 (approximately 50% more cells inoculated)” value (approximately 0.1 g 2-hydroxy-5-oxoproline in 800 mls media, approximately 300 hours) was “grew as if they had been inoculated with more cells than had actually been added”. For the same molecule, the “faster growth than culture without 2-hydroxy-5-oxoproline” value (as measured by absorbance at 750 nm, effective amount of 2-hydroxy-5-oxoproline) is given as “fifty to sixty”.
